From patent US3995055A, “Method for treating peptic ulcers” (priority 1975, dated 1976)
Entries after “also recorded” stand apart in the source; their conditions may differ. Where a name gives a salt, the structure may show the parent alone.

How the values were obtained:
Shay ulcers [1] = experiment: Shay Ulcer Test by Intraperitoneal Administration; format: in vivo, Donryu rats; conditions: Rattus norvegicus, ip, 18 h, read-out: Inhibitory Ratio; for inhibition in vivo at 350 mg/kg: 350 mg/Kg intraperitoneally in 0.5% CMC
Description: (§1) Donryu rats each weighing 200 to 240 g (six in each group) were starved for 48 hours, and ligated at a portion of the duodenum near the pylorus by the method of Shay et al (see Gastroenterology, 54, 43 (1945)). Immediately after the ligation, DV-1006 was orally administered to the rats at a dosage of 300 mg/Kg. After 18 hours, the abdomen of each of the rats was incised, and the stomach was removed.
Some typical compounds of formula (I) were tested on Shay ulcers in the same way as described in Example 2 except that each of the compounds was suspended in a 0.5% aqueous solution of carboxymethyl cellulose and administered intraperitoneally.

Shay ulcers [2] = experiment: Shay Ulcer Test (oral administration); format: in vivo, Donryu rats; conditions: for inhibitory ratio (Shay ulcer): 18 hours after ligation; for Effectiveness on Shay Ulcer (aggressive factors): Table 1
Description: as §1
In the same way as described above, gefarnate, a conventional anti-ulcer agent, was administered to the rats at a dosage of 100 mg/Kg.

drug ulcers = experiment: Drug Ulcer Test (indomethacin, aspirin, phenylbutazone); format: in vivo, rats; conditions: for Inhibitory Ratio, Aspirin ulcer: aspirin 300 mg/Kg; for Inhibitory Ratio, Indomethacin ulcer: indomethacin 25 mg/Kg; for Inhibitory Ratio, Phenylbutazone ulcer: phenylbutazone 200 mg/Kg; for Effectiveness on Drug Ulcer (defensive factors): Table 1
Description: Female rats each weighing about 150 g (5 in each group) were starved for 20 hours, and then DV-1006 was administered to the rats. After one hour, 25 mg/Kg of indomethacin, 300 mg/Kg of aspirin and 200 mg/Kg of phenylbutazone, respectively, were administered orally to the rats and the rats were further starved for 5 hours. The stomach of each of the rats was removed, and the ulcer index was measured.
For comparison, the above procedure was repeated except that gefarnate and aluminum sucrose sulfate were used in their basic customary dosages.

acetic ulcers = experiment: 10% Acetic Acid Ulcer Test; format: in vivo, Wistar rats; conditions: for Effectiveness on Acetic Ulcer (defensive factors): Table 1
Description: Each of the drugs shown in FIG. 1 was orally administered to the rats once a day for 8 days starting on the date on which the acetic acid was injected. On the ninth day the rats were killed under ether anaesthesia. The stomach of each rat was removed, and opened along the greater curvature. The ulcer index was measured by means of slide calipers, and then the glandular stomach tissue was homogenized by adding a suitable amount of a physiological salt solution, and centrifuged for 20 minutes at a rate of 12,000 rpm.

clamping ulcers = experiment: Clamping Ulcer Test; format: in vivo, Wistar male rats; conditions: for Effectiveness on Clamping Ulcer (defensive factors): Table 1
Description: (§2) Each of the drugs shown in FIG. 2 was administered orally once in a day for 14 days starting on the day on which the aluminum metal plate was removed. On the fifteenth day, the rats were killed under ether anaesthesia, and the ulcer index and the mucopolysaccharase activity in the stomach tissue were measured.

[3] = system: clamping-cortisone ulcers; experiment: Clamping-Cortisone Ulcer Test; format: in vivo, rats; conditions: for Effectiveness on Clamping-Cortisone Ulcer (defensive factors): Table 1
Description: as §2
Then, 5 mg/Kg of hydrocortisone acetate was intramuscularly injected into the rats once a day for 7 days starting on the day on which the aluminum metal plate was removed. Each of the agents shown in FIG. 3 was administered orally to the rats once a day for 11 days starting on the day on which the administration of hydrocortisone acetate was stopped.

pepsin secretion = experiment: Pepsin Secretion Inhibition Test (beef bouillon pot-au-feu soup stimulating test); format: in vivo, Heidenhain pouch dogs; conditions: 150 mg/Kg orally, second stimulation 75 minutes later; FIG. 4
Description: After oral administration (first stimulation) of 70 ml of a mixture (100 ml) of 6 g of beef bouillon and 6 g of pot-au-feu soup, gastric juice was extracted every 15 minutes. When the secretion of gastric juice returned almost to the value before the stimulation, DV-1006 was orally administered at a dosage of 150 mg/Kg. The second stimulation was given 75 minutes later in the same way as in the first stimulation, and the amount of gastric juice secreted and the amount of pepsin secreted were measured [by the modified method of Anson-Maskey (see J. Gen. Physiol., 16, 59 (1932))] with the passage of time.

gastric ulcers = experiment: Clinical test in gastric ulcer patients; format: in vivo
Description: Further, in order to confirm the anti-ulcer activities of the compounds of the general formula (I), clinical tests were also conducted using DV-1006 as a representative example of the compounds of the general formula (I). These clinical tests were performed on patients with gastric ulcers at National Zentsuji Hospital in Tokushima Prefecture, Japan.
30 gastric ulcer patients at the Internal Treatment Department of National Zentsuji Hospital in Tokushima Prefecture, Japan, who had been so diagnosed by X-ray and endoscopes, were treated for 8 weeks using an oral administration of DV-1006 at a dosage of 200 mg three times per day. At the end of the 8-week period, 21 patients were completely cured (70%), the condition of 7 patients had been alleviated (23%).

gastric juice = experiment: Mode of activity: action on gastric juice; set-up: key: the symbol (+) shows that a particular agent has the indicated activity; the symbol (-) shows that the particular agent does not have the indicated activity; symbol (±) shows that the particular agent has a slight activity
Description: As stated above, DV-1006 acts very strongly both on the aggressive factors and the defensive factors as compared with conventional anti-ulcer agents. […] In the treatment of peptic ulcers, the action of an agent on the gastric juice can be classified roughly into the following five categories: […]

carbachol stimulation = experiment: Carbachol stimulation in the Gosh and Schild method; format: in vivo
Description: (§3) Incidentally, it appears from the above table that anticholinergic agents produce […] those produced by DV-1006. […] From a pharmacological standpoint, DV-1006 has the activity selectively inhibiting the secretion of pepsin without affecting acidity and the activity of pepsin itself.

[4] = General anticholinergic activities
Description: as §3

NC[C@H]1CC[C@H](C(=O)Oc2ccccc2)CC1
inhibition in vivo at 350 mg/kg (Shay ulcers [1]): 84%

NC[C@H]1CC[C@H](C(=O)Oc2ccc(C=CC(=O)O)cc2)CC1
inhibition in vivo at 350 mg/kg (Shay ulcers [1]): 76%

COc1cc(C=O)ccc1OC(=O)[C@H]1CC[C@H](CN)CC1
inhibition in vivo at 350 mg/kg (Shay ulcers [1]): 84%

NC[C@H]1CC[C@H](C(=O)Oc2ccc(-c3ccccc3)cc2)CC1
inhibition in vivo at 350 mg/kg (Shay ulcers [1]): 58%

NC[C@H]1CC[C@H](C(=O)Oc2ccc3ccccc3c2)CC1
inhibition in vivo at 350 mg/kg (Shay ulcers [1]): 84%

NC[C@H]1CC[C@H](C(=O)Oc2ccc(C(=O)O)cc2)CC1
inhibition in vivo at 350 mg/kg (Shay ulcers [1]): 71%

NC[C@H]1CC[C@H](C(=O)Oc2ccc(CC(N)C(=O)O)cc2)CC1 (stereo partly shown)
inhibition in vivo at 350 mg/kg (Shay ulcers [1]): 71%

NC[C@H]1CC[C@H](C(=O)Oc2ccc(Cl)cc2)CC1
inhibition in vivo at 175 mg/kg (Shay ulcers [1]; 175 mg/Kg intraperitoneally in 0.5% CMC): 62%

NC[C@H]1CC[C@H](C(=O)Oc2ccc(CCC(=O)O)cc2)CC1 [DV-1006, 4'-(2-carboxyethyl)phenyl.trans-4-aminomethylcyclohexane carboxylate]
inhibitory ratio (Shay ulcer) (Shay ulcers [2]; 300 mg/Kg orally, method of Adami et al.): 100%
Effectiveness on Shay Ulcer (aggressive factors) (Shay ulcers [2]): +
Inhibitory Ratio, Aspirin ulcer (drug ulcers; 300 mg/Kg p.o.): 65.3%
Inhibitory Ratio, Indomethacin ulcer (drug ulcers; 300 mg/Kg p.o.): 30.2%
Inhibitory Ratio, Phenylbutazone ulcer (drug ulcers; 300 mg/Kg p.o.): 70.0%
Effectiveness on Drug Ulcer (defensive factors) (drug ulcers): +
dose-response of action on acetic acid ulcers (acetic ulcers; FIG. 1): showed a dose-response
Effectiveness on Acetic Ulcer (defensive factors) (acetic ulcers): +
activity of the mucopolysaccharase in the ulcer portion (acetic ulcers; glandular stomach tissue, ninth day, FIG. 1): reduced
action on ulcers caused by acetic acid (visual ulcer indices) (acetic ulcers; oral once a day for 8 days, ninth day, FIG. 1): marked inhibitory action; also recorded: especially strong action
Effectiveness on Clamping Ulcer (defensive factors) (clamping ulcers): +
action on β-glucuronidase in stomach tissue (clamping ulcers; oral once a day for 14 days, fifteenth day, FIG. 2): especially significant inhibitory action
Effectiveness on Clamping-Cortisone Ulcer (defensive factors) [3]: +
action on clamping-cortisone ulcers ([3]; model of chronic ulcers): especially strong action
action on the activity of β-glucuronidase in stomach tissue ([3]; oral once a day for 11 days, twentieth day, FIG. 3): especially significant inhibitory action
amount of gastric juice secreted (pepsin secretion): reduced
pepsin secretion (pepsin secretion): markedly inhibited
side-effects in patients (gastric ulcers; oral 200 mg three times per day, 8 weeks): No side-effects were observed
curing effect on peptic ulcers (gastric ulcers; orally for several days at 300 to 1200 mg/day): very marked curing effect
Action on Gastric Juice: Amount of Gastric Juice (gastric juice; activity of controlling gastric juice): +
Action on Gastric Juice: Acids Activity (gastric juice; inhibitory action on acids): -
Action on Gastric Juice: Pepsin Activity (gastric juice; inhibitory action on the activity of pepsin itself): -
Action on Gastric Juice: Acid Secretion (gastric juice; inhibitory action on the secretion of acids): ±
Action on Gastric Juice: Pepsin Secretion (gastric juice; inhibitory action on the secretion of pepsin): +
inhibitory activity on carbachol stimulation (carbachol stimulation): does not exhibit any inhibitory activity
general anticholinergic activities [4]: does not show general anticholinergic activities

CN1[C@@H]2CC[C@H]1C[C@@H](OC(=O)C(CO)c1ccccc1)C2 (stereo partly shown) [atropine sulfate]
Effectiveness on Shay Ulcer (aggressive factors) (Shay ulcers [2]): +
Effectiveness on Drug Ulcer (defensive factors) (drug ulcers): -
Effectiveness on Acetic Ulcer (defensive factors) (acetic ulcers): +

NC[C@H]1CC[C@H](C(=O)Oc2ccc(CCC(=O)O)cc2)CC1 [drawing 3]
inhibition in vivo at 350 mg/kg (Shay ulcers [1]): 70%

CC(C)=CCC/C(C)=C/CC/C(C)=C/CCC(=O)OC/C=C(\C)CCC=C(C)C [gefarnate]
inhibitory ratio (Shay ulcer) (Shay ulcers [2]; 100 mg/Kg orally): 83%
Effectiveness on Shay Ulcer (aggressive factors) (Shay ulcers [2]): -
Inhibitory Ratio, Aspirin ulcer (drug ulcers; 100 mg/Kg p.o.): 42.8%
Inhibitory Ratio, Indomethacin ulcer (drug ulcers; 100 mg/Kg p.o.): 29.0%
Inhibitory Ratio, Phenylbutazone ulcer (drug ulcers; 100 mg/Kg p.o.): 31.5%
Effectiveness on Drug Ulcer (defensive factors) (drug ulcers): +
Effectiveness on Acetic Ulcer (defensive factors) (acetic ulcers): -
Effectiveness on Clamping Ulcer (defensive factors) (clamping ulcers): +
Effectiveness on Clamping-Cortisone Ulcer (defensive factors) [3]: +

aluminum sucrose sulfate
Effectiveness on Shay Ulcer (aggressive factors) (Shay ulcers [2]): +
Inhibitory Ratio, Aspirin ulcer (drug ulcers; 1000 mg/Kg p.o.): 38.6%
Inhibitory Ratio, Indomethacin ulcer (drug ulcers; 1000 mg/Kg p.o.): 40.0%
Inhibitory Ratio, Phenylbutazone ulcer (drug ulcers; 1000 mg/Kg p.o.): 38.0%
Effectiveness on Drug Ulcer (defensive factors) (drug ulcers): +
Effectiveness on Acetic Ulcer (defensive factors) (acetic ulcers): +
Effectiveness on Clamping Ulcer (defensive factors) (clamping ulcers): +
Effectiveness on Clamping-Cortisone Ulcer (defensive factors) [3]: -
